Data set [1] in a line: Substrate activity at P-gp in MDCK2-MDR1 cells at 10 uM incubated for 60 mins in presence or absence of 2 uM P-gp inhibitor elacridar by LC-MS/MS analysis. The data set is classed as ADME, cell-based, Canis lupus familiaris. The following applies: dog, mdck-mdr1, 1 h.
A further data set has as its system A549. The experiment in a line: Antiproliferative activity against human A549 cells assessed as reduction in cell growth measured after 72 hrs by Alamar blue assay. The data set is classed as functional, cell-based. The following applies: A549, 72 h.
The test system of a further data set is HepG2. Briefly: Antiproliferative activity against human HepG2 cells assessed as reduction in cell growth measured after 24 hrs by MTS assay. It counts as functional, cell-based. To be noted: HepG2, 24 h.
Data set [2] concerns the target T1, Lysine-specific demethylase 4C (Homo sapiens, UniProt Q9H3R0).
T1 sequence (Q9H3R0 whole entry): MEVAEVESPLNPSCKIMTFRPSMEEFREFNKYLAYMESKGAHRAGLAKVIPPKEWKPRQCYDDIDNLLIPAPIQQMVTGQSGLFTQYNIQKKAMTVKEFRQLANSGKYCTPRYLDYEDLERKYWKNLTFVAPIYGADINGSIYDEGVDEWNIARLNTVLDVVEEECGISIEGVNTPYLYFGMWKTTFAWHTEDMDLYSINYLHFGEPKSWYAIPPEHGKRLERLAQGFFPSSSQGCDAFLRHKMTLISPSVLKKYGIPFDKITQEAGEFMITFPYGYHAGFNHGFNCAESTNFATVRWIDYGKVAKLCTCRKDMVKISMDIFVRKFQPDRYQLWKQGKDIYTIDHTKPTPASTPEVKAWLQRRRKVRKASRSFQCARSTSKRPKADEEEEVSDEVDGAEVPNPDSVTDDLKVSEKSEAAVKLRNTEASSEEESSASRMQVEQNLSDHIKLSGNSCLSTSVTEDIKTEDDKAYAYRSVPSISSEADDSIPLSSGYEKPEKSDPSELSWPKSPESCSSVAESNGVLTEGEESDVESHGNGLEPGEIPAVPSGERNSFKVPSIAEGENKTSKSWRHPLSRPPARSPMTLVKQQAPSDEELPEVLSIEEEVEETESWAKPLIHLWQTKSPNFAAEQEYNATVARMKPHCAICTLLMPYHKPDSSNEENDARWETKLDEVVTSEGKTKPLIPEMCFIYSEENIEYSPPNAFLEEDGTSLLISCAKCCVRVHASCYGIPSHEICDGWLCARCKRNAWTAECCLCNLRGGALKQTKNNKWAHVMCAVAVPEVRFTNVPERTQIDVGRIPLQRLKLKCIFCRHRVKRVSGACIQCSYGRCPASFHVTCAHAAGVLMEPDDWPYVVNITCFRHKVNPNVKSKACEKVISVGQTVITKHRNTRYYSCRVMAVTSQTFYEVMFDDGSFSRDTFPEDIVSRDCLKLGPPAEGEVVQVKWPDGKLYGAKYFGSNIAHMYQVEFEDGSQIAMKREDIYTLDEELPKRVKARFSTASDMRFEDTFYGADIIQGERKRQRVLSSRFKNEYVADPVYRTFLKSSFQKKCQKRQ
Briefly: Inhibition of KDM4C (unknown origin) using methylated H3 peptide as substrate by chemiluminescence assay. To be noted: read-out: IC50.

The nature of data set [3]: Intrinsic clearance in mouse liver microsomes assessed per mg protein at 1 uM measured up to 60 mins in presence or absence of NADPH by LC-MS/MS analysis. The data set is classed as ADME, Microsome. The following applies: liver microsomes, read-out: CLH. For orientation: Microsomes from liver hold many membrane-bound enzymes, among them those of drug oxidation.
Data set [4] concerns P-gp. Briefly: Permeability across apical to basolateral side in MDCK2-MDR1 cells at 10 uM incubated for 60 mins in presence 2 uM P-gp inhibitor elacridar by LC-MS/MS analysis. It counts as ADME, cell-based, Canis lupus familiaris. The following applies: dog, MDCK-MDR1, with elacridar 2 uM; read-out: permeability.
For another data set, the species on record is Homo sapiens. The experiment in a line: Selectivity ratio, ratio of IC50 for KDM4A (unknown origin) to IC50 for KDM4C (unknown origin).
Data set [5] concerns P-gp. The experiment in a line: Efflux ratio of permeability from basolateral to apical over apical to basolateral side in MDCK2-MDR1 cells MDCK2-MDR1 cells at 10 uM incubated for 60 mins in presence 2 uM P-gp inhibitor elacridar by LC-MS/MS analysis. The following applies: dog, MDCK-MDR1, with elacridar 2 uM. The data set is classed as ADME, cell-based, Canis lupus familiaris.

Data set [6] addresses T2, Lysine-specific demethylase 4A (Homo sapiens, UniProt O75164).
T2 sequence (O75164 whole entry): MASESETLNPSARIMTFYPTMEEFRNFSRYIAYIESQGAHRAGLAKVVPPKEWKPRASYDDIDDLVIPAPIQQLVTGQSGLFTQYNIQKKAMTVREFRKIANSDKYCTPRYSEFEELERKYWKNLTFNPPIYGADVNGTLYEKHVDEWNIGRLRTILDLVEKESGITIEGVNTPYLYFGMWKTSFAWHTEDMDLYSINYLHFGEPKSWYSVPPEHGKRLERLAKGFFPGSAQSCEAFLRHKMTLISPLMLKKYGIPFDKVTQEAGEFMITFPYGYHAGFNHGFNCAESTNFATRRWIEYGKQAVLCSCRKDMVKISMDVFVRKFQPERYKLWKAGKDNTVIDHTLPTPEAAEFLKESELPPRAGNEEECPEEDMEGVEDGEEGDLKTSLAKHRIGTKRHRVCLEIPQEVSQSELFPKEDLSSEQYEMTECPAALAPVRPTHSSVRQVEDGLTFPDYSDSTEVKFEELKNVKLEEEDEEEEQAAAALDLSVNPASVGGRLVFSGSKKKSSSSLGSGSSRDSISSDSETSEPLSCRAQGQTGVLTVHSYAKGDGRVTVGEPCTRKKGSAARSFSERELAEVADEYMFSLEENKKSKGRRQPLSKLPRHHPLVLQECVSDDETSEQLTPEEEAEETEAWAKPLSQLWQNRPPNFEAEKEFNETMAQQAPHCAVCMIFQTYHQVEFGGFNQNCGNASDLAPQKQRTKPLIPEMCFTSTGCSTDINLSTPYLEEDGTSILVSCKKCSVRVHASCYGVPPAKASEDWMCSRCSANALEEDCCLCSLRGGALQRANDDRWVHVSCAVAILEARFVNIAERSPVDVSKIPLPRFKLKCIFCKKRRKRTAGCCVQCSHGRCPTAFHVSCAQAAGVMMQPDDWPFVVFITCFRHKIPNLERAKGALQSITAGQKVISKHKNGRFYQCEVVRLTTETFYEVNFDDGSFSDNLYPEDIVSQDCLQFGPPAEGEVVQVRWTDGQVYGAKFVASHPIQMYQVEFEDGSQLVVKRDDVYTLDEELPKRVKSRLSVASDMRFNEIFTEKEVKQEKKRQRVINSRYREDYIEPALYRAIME
The experiment in a line: Inhibition of KDM4A (unknown origin).

Data set [7] addresses T1, Lysine-specific demethylase 4C. Briefly: Inhibition of KDM4C (unknown origin).

The values that follow come from ChEMBL document CHEMBL4609995, “Rational design, synthesis and biological profiling of new KDM4C inhibitors” (Bioorg Med Chem, 2020).

What is called IC50 is the point on the concentration scale where inhibition reaches its midpoint. What is called efflux ratio is a quotient of directional permeabilities that is used to spot active efflux. Turning to `Cn1ncnc2c(=O)n(C)c(=O)nc1-2`, in [1], the Activity result is “Not Active”. Also, the IC50 stood at 22 nM in the data set on A549; 4500 nM in the data set on HepG2; 541 nM in [2]; 2500 nM in data set [6]; 500 nM in data set [7]. In addition, the microsomal CLint at 1 µM in data set [3] was less than 12.5 µL/min/mg. Also, the Papp A→B at 1 h, 10 µM in the data set on P-gp [4] was 16 ×10⁻⁶ cm/s. Further, in the data set filed under Homo sapiens, the Ratio IC50 is 5. In the data set with P-gp [5], the efflux ratio at 1 h, 10 µM was less than 2.
